Assay results: ChEMBL document CHEMBL1150709, “Irisones A and B: two new isoflavones from Iris missouriensis” (1987)

System: P388
Assay: Cytotoxicity against mouse P388 cells
Assay type: functional
Conditions: read-out: ED50 (the source's name)

Compound	EC50 [µg/mL]
COc1ccccc1-c1coc2cc3c(c(O)c2c1=O)OCO3 [IRISONE A]	> 50
COc1ccccc1-c1coc2cc(O)c(OC)c(O)c2c1=O	> 50
O=c1c(-c2ccccc2O)coc2cc3c(c(O)c12)OCO3 [IRISONE B]	> 50
